Legend:
HCV Replicon = HCV Replicon inhibition; assay type: cell-based; details: Hepatitis C virus
NS5B polymerase protein = biological target: T1, NS5B polymerase protein (Hepatitis C virus genotype 1a, UniProt P27958); assay: biochemical; details: pre-incubated 37° C. 30 minutes; RdRp reaction 90 minutes at 37° C.; read-out: HCV NS5B inhibition EC50
T1 construct: pre-incubated with the RNA template and NS5B polymerase protein; Replizyme
Procedure: The compounds were tested in the Replizyme HCV heterotemplate radioactive RNA-dependent RNA-polymerase (RdRp) assay. The test compounds were pre-incubated with the RNA template and NS5B polymerase protein at 37° C. for 30 minutes. The RdRp reaction was initiated with the addition of the NTPs to the buffer-NS5B-compound mix, and was allowed to proceed for 90 minutes at 37° C. Control reactions included: no enzyme, 5% DMSO (test compound solvent), no compound/solvent, Cordycepin-TP and HCV-796 (IC50 values used as a reference inhibition). Radioactive products were collected by applying the stopped reaction to DE-81 paper, air dried prior to washing with buffer comprising NaH2PO4 and sodium pyrophosphate to remove unincorporated ^32P-GTP in the NTP mix, and rinsed with dH2O followed by 100% ethanol. The DE-81 paper was air dried, squares cut out and placed in scintillation tubes for counting.

T1 sequence (P27958 2421-3011): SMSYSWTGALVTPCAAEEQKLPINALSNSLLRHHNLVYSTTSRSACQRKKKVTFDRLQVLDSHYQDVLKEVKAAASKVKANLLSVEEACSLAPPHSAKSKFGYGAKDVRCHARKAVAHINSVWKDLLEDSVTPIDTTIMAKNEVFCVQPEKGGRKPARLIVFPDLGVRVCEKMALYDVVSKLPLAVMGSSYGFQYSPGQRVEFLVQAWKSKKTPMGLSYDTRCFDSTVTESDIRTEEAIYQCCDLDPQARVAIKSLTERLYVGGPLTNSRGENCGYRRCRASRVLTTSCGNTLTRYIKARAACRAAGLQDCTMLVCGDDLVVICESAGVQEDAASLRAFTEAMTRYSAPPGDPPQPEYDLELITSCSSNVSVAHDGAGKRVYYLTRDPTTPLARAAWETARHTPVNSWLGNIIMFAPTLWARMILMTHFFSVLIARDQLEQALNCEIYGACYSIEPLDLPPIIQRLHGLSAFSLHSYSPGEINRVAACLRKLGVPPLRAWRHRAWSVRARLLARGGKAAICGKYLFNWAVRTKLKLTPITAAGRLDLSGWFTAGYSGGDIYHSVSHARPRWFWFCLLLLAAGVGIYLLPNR

SMILES	EC50 (HCV Replicon)	EC50 (NS5B polymerase protein)
CC(C)CCn1nc(C2=NS(=O)(=O)c3cc(NS(C)(=O)=O)ccc3N2)c2ccccc21 [Compound 204]	10000 to 50000 nM	100 to 1000 nM
CC(C)CCn1c(=O)c(C2=NS(=O)(=O)c3cc(NS(C)(=O)=O)ccc3N2)c(O)n2ncnc12 [Compound 235, N-{3-[7-Hydroxy-4-(3-methyl-butyl)-5-oxo-4,5-dihydro-[1,2,4]triazolo[1,5-a]pyrimidin-6-yl]-1,1-dioxo-1,4-dihydro-1lambda*6*-benzo[1,2,4]thiadiazin-7-yl}-methanesulfonamide]	< 100 nM	1000 to 10000 nM
CC(C)CCc1c2n(c(O)c(C3=NS(=O)(=O)c4cc(NS(C)(=O)=O)ccc4N3)c1=O)CCCC2 [Compound 220]	100 to 1000 nM	< 100 nM
CC(C)CCn1cc(C2=NS(=O)(=O)c3cc(NS(C)(=O)=O)ccc3N2)c2ccc(C(C)C)cc21 [Compound 211]	10000 to 50000 nM	1000 to 10000 nM
Cc1cccc2c(CCC(C)C)c(=O)c(C3=NS(=O)(=O)c4cc(NS(C)(=O)=O)ccc4N3)c(O)n12 [Compound 249]	< 100 nM	100 to 1000 nM
CC(C)CCn1nc(C2=NS(=O)(=O)c3ccccc3N2)c2ccccc21 [Compound 202]	10000 to 50000 nM	10000 to 50000 nM
CC(C)CCc1c(=O)c(C2=NS(=O)(=O)c3cc(NS(C)(=O)=O)ccc3N2)c(O)n2cc(F)ccc12 [Compound 250]	< 100 nM	< 100 nM
CC(C)(C)CCc1c(=O)c(C2=NS(=O)(=O)c3cc(NS(C)(=O)=O)ccc3N2)c(O)n2ccccc12 [Compound 227]	< 100 nM	< 100 nM
CC(C)CCC1(C)C(=O)C(C2=Nc3ccccc3S(=O)(=O)N2)=C(O)c2cccn21 (stereo not shown) [Compound 213]	10000 to 50000 nM	< 100 nM
CC(C)CCn1cc(C2=NS(=O)(=O)c3cc(NS(C)(=O)=O)ccc3N2)c2ccc(O)cc21 [Compound 210]	10000 to 50000 nM	100 to 1000 nM
CC(C)CCC1(C)C(=O)C(C2=NS(=O)(=O)c3cc(NS(C)(=O)=O)ccc3N2)=C(O)c2nccn21 (stereo not shown) [Compound 215]		1000 to 10000 nM
CS(=O)(=O)Nc1ccc2c(c1)S(=O)(=O)N=C(c1c(O)n3ccccc3c(Cc3cccs3)c1=O)N2 [Compound 244]		< 100 nM
CS(=O)(=O)Nc1ccc2c(c1)S(=O)(=O)N=C(c1c(O)n3ccccc3c(Cc3ccc(F)c(F)c3)c1=O)N2 [Compound 236, N-{3-[1-(3,4-Difluoro-benzyl)-4-hydroxy-2-oxo-2H-quinolizin-3-yl]-1,1-dioxo-1,4-dihydro-1lambda′6′-benzo[1,2,4]thiadiazin-7-yl}-methanesulfonamide]	< 100 nM	< 100 nM
CS(=O)(=O)Nc1ccc2c(c1)S(=O)(=O)N=C(c1cccc(C(F)(F)F)c1)N2 [Compound 224]	< 100 nM	10000 to 50000 nM
CC(C)CCn1cc(C2=NS(=O)(=O)c3ccccc3N2)c2ccccc21 [Compound 201]	10000 to 50000 nM	10000 to 50000 nM
CC(C)CCc1c(=O)c(C2=NS(=O)(=O)c3cc(NS(C)(=O)=O)ccc3N2)c(O)n2ccccc12 [Compound 225]	< 100 nM	< 100 nM
COc1cccc2c1c(C1=NS(=O)(=O)c3cc(NS(C)(=O)=O)ccc3N1)cn2CCC(C)C [Compound 205]	10000 to 50000 nM	10000 to 50000 nM
CC(C)CCn1c(=O)c(C2=NS(=O)(=O)c3cc(NS(C)(=O)=O)ccc3N2)c(O)n2nccc12 [Compound 229, N-{3-[7-Hydroxy-4-(3-methyl-butyl)-5-oxo-4,5-dihydro-pyrazolo[1,5-a]pyrimidin-6-yl]-1,1-dioxo-1,4-dihydro-1lambda*6*-benzo[1,2,4]thiadiazin-7-yl}-methanesulfonamide]	< 100 nM	100 to 1000 nM
CC(C)CCC1(C)C(=O)C(C2=NS(=O)(=O)c3cc(NS(C)(=O)=O)ccc3N2)=C(O)c2ccnn21 (stereo not shown) [Compound 223]	1000 to 10000 nM	< 100 nM

SMILES	EC50 (HCV Replicon)	EC50 (NS5B polymerase protein)
CS(=O)(=O)Nc1ccc2c(c1)S(=O)(=O)N=C(c1c(O)n3ccccc3c(Cc3ccccc3)c1=O)N2 [Compound 238, N-[3-(1-Benzyl-4-hydroxy-2-oxo-2H-quinolizin-3-yl)-1,1-dioxo-1,4-dihydro-1lambda′6′-benzo[1,2,4]thiadiazin-7-yl]-methanesulfonamide]	< 100 nM	< 100 nM
CC(C)CCn1c(=O)c(C2=NS(=O)(=O)c3ccccc3N2)c(O)n2ccnc12 [Compound 221, 6-(1,1-Dioxo-1,4-dihydro-1lambda*6*-benzo[1,2,4]thiadiazin-3-yl)-5-hydroxy-8-(3-methyl-butyl)-8H-imidazo[1,2-a]pyrimidin-7-one]	> 50000 nM	100 to 1000 nM
CS(=O)(=O)Nc1ccc2c(c1)S(=O)(=O)N=C(c1c(O)n3nccc3n(Cc3ccccc3)c1=O)N2 [Compound 230, N-[3-(4-Benzyl-7-hydroxy-5-oxo-4,5-dihydro-pyrazolo[1,5-a]pyrimidin-6-yl)-1,1-dioxo-1,4-dihydro-1lambda*6*-benzo[1,2,4]thiadiazin-7-yl]-methanesulfonamide]	< 100 nM	1000 to 10000 nM
CC(C)CCn1c(=O)c(C2=NS(=O)(=O)c3cc(NS(C)(=O)=O)ccc3N2)c(O)n2nc(C3CC3)cc12 [Compound 234, N-{3-[2-cyclopropyl-7-Hydroxy-4-(3-methyl-butyl)-5-oxo-4,5-dihydro-pyrazolo[1,5-a]pyrimidin-6-yl]-1,1-dioxo-1,4-dihydro-1lambda*6*-benzo[1,2,4]thiadiazin-7-yl}-methanesulfonamide]	< 100 nM	10000 to 50000 nM
CC(C)CCn1c(=O)c(C2=NS(=O)(=O)c3cc(NS(C)(=O)=O)ccc3N2)c(O)n2ccnc12 [Compound 222, N-{3-[5-Hydroxy-8-(3-methyl-butyl)-7-oxo-7,8-dihydro-imidazo[1,2-a]pyrimidin-6-yl]-1,1-dioxo-1,4-dihydro-1lambda*6*-benzo[1,2,4]thiadiazin-7-yl}-methanesulfonamide]	100 to 1000 nM	< 100 nM
CS(=O)(=O)Nc1ccc2c(c1)S(=O)(=O)N=C(c1c(O)n3ccccc3c(Cc3ccccc3F)c1=O)N2 [Compound 237, N-{3-[1-(2-Fluoro-benzyl)-4-hydroxy-2-oxo-2H-quinolizin-3-yl]-1,1-dioxo-1,4-dihydro-1lambda′6′-benzo[1,2,4]thiadiazin-7-yl}-methanesulfonamide]	< 100 nM	< 100 nM
CC(C)CCc1c(O)c(C2=Nc3ccccc3S(=O)(=O)N2)c(O)c2ccccc12 [Compound 104, 1,3-dihydroxy-2-(1,1-dioxo-2H-(1,2,4)-benzothiadiazin-3-yl)-4-(3-methylbutyl)naphthalene]	1000 to 10000 nM	100 to 1000 nM
CC(C)CCC1(C)C(=O)C(C2=NS(=O)(=O)c3cc(NS(C)(=O)=O)ccc3N2)=C(O)c2cccn21 (stereo not shown) [Compound 214]	100 to 1000 nM	< 100 nM
CC(C)CCn1cc(C2=NS(=O)(=O)c3cc(NS(C)(=O)=O)ccc3N2)c2cc(Br)ccc21 [Compound 212]	> 50000 nM	1000 to 10000 nM
Cc1cc2c(o1)c(C1=NS(=O)(=O)c3cc(NS(C)(=O)=O)ccc3N1)c(=O)n1ccccc21 [Compound 242]		10000 to 50000 nM
CS(=O)(=O)Nc1ccc2c(c1)S(=O)(=O)N=C(c1c(O)n3nccc3n(CCc3ccc(F)cc3)c1=O)N2 [Compound 232, N-(3-{4-[2-(4-Fluoro-phenyl)-ethyl]-7-hydroxy-5-oxo-4,5-dihydro-pyrazolo[1,5-a]pyrimidin-6-yl}-1,1-dioxo-1,4-dihydro-1lambda*6*-benzo[1,2,4]thiadiazin-7-yl)-methanesulfonamide]	< 100 nM	> 50000 nM
Cc1cc2n(CCC(C)C)c(=O)c(C3=NS(=O)(=O)c4cc(NS(C)(=O)=O)ccc4N3)c(O)n2n1 [Compound 233, N-{3-[7-Hydroxy-2-methyl-4-(3-methyl-butyl)-5-oxo-4,5-dihydro-pyrazolo[1,5-a]pyrimidin-6-yl]-1,1-dioxo-1,4-dihydro-1lambda*6*-benzo[1,2,4]thiadiazin-7-yl}-methanesulfonamide]	< 100 nM	1000 to 10000 nM
CC(C)CCn1cc(C2=NS(=O)(=O)c3cc(NS(C)(=O)=O)ccc3N2)c2c(O)cccc21 [Compound 209]	> 50000 nM	100 to 1000 nM
CC(C)CCn1cc(C2=NS(=O)(=O)c3cc(NS(C)(=O)=O)ccc3N2)c2cccc(Cl)c21 [Compound 208]	> 50000 nM	100 to 1000 nM
CS(=O)(=O)Nc1ccc2c(c1)S(=O)(=O)N=C(c1c(O)n3nccc3n(Cc3ccc(F)cc3)c1=O)N2 [Compound 231, N-{3-[4-(4-Fluoro-benzyl)-7-hydroxy-5-oxo-4,5-dihydro-pyrazolo[1,5-a]pyrimidin-6-yl]-1,1-dioxo-1,4-dihydro-1lambda*6*-benzo[1,2,4]thiadiazin-7-yl}-methanesulfonamide]	< 100 nM	10000 to 50000 nM
CS(=O)(=O)Nc1ccc2c(c1)S(=O)(=O)N=C(c1c(O)n3ccccc3c(Cc3ccc(F)cc3)c1=O)N2 [Compound 228]	< 100 nM	< 100 nM
COc1ccc(Cc2c(=O)c(C3=NS(=O)(=O)c4cc(NS(C)(=O)=O)ccc4N3)c(O)n3ccccc23)cc1 [Compound 245]	< 100 nM	100 to 1000 nM
CS(=O)(=O)Nc1ccc2c(c1)S(=O)(=O)N=C(c1c(O)n3ccccc3c(CCC3CC3)c1=O)N2 [Compound 253]	100 to 1000 nM	1000 to 10000 nM
O=S1(=O)NC(c2c(O)c(Br)c3ccccc3c2O)=Nc2ccccc21 [Compound 105, 4-bromo-1,3-dihydroxy-2-(1,1-dioxo-2H-(1,2,4)-benzothiadiazin-3-yl)naphthalene]	1000 to 10000 nM	1000 to 10000 nM
